Read-outs that look alike come from different tables or passages of the source.
What was measured:
[1] = system: β-hematin crystal formation; assay: β-Hematin crystal formation by FTIR spectroscopy; format: biochemical; conditions: acid-buffered medium pH 5; 1:3 hematin/compound ratio
Experimental: The ability of these compounds to inhibit the formation of β-hematin crystals was investigated by IR spectroscopy (Figure 2f). Of note, β-hematin crystal formation was assayed in an acid-buffered medium, while hemin titration was assayed at neutral pH. […]. For both ATV and complexes 1–3, there may have been overlapping between a decrease in the (C = O) band of heme species and a (C = O) band of quinone. However, there was no danger of overlaps in the (C–O) band of heme species at 1210 cm^–1, since these species are absent from the drugs.
The conversion of hematin into β-hematin crystals was determined by FTIR spectroscopy as described previously.[52] In a microtube, 20 mg hemin and three equivalents of the compounds were dissolved in 3 mL 0.1 M NaOH solution and stirred for 30 min at 60 °C. Then, 0.3 mL 0.1 M HCl and 1.7 mL sodium acetate buffer (10 M, pH 5) were added at the same temperature. […] After incubation for 120 min, the reaction mixture was cooled on ice for 10 min and then centrifuged and washed with water to remove salts. Resulting crystals were dried and IR spectra were obtained using ATR mode.[66]−[68]

[2] = Cytotoxicity in mammalian cells (CellTiter-Glo), J774; format: cell-based; conditions: mouse, J774 macrophage cells; J774 murine macrophage line; 72 h drug incubation; mean of three experiments; read-out: mammalian cells CC50 (±SEM), J774
Experimental: (§1) Cell lines J774 and HepG2 were incubated with the drug for 72 h, the same time frame as employed to determine antimalarial activity. Cytotoxicity was evaluated in parallel with ATV as a representative parental drug, while doxorubicin was used as a standard cytotoxic drug. These experiments were also used to estimate the in vitro selectivity index (Table 2).
(§2) Doxorubicin chloridrate (Eurofarma, São Paulo, Brazil) was used as a positive control, while untreated cells were employed as negative controls. Bioluminescence readings were performed using a Filtermax F5Multi-Mode instrument (Molecular Devices, Sunnyvale, CA) using the CellTiter-Glo kit (Promega Corporation, Madison, USA). Three independent experiments were performed and CC50 values were calculated.

[3] = Cytotoxicity in mammalian cells (CellTiter-Glo), HepG2; format: cell-based; conditions: HepG2 hepatocellular carcinoma cells; HepG2 human hepatocellular carcinoma line; 72 h drug incubation; mean of three experiments; read-out: mammalian cells CC50 (±SEM), HepG2
Experimental: as §1, §2

[4] = system: P. falciparum 3D7 (CQ-susceptible strain); assay: Antiplasmodial activity, asexual blood stages, HRP2 ELISA-based assay, 3D7 strain; format: cell-based, Plasmodium falciparum; conditions: for IC50: CQ-susceptible 3D7 strain, 72 h drug incubation, mean of five to seven experiments, read-out: P. falciparum IC50 (±SEM), 3D7
Description: We determined the half-maximal inhibitory concentration (IC50) of the complexes against asexual blood stages of P. falciparum using CQ-susceptible and CQ-resistant strains (Table 2). […]. Two strains were selected for the tests: the CQ-susceptible 3D7 strain (isolated in West Africa; obtained from MR4, VA, USA), and the CQ-resistant W2 strain (isolated in Indochina; obtained from MR4, VA, USA). Both were maintained in culture in RPMI 1640 (Invitrogen, Paisley, UK), supplemented with 10% human serum (Abcys S.A. Paris, France), and buffered with 25 mM HEPES and 25 mM NaHCO3. Parasites were grown in A-positive human blood (Etablissement Français du Sang, Marseille, France) in controlled atmospheric conditions that consisted of 10% O2, 5% CO2, and 85% N2 at 37 °C with 95% humidity. […]
For in vitro isotopic microtests, 25 μL/well of antimalarial drug and 200 μL/well of parasitized red blood cell suspension (final parasitemia 0.5%, final hematocrit 1.5%) were distributed into 96-well plates. The plates were incubated for 72 h at 37 °C in 85% N2, 10% O2, 5% CO2. After freezing and then thawing, the hemolyzed cultures were homogenized by vortexing the plates. The drug susceptibility assay was performed using the HRP2 ELISA-based assay of the Malaria Ag Celisa kit (ref KM2159, Cellabs PTY LDT, Brookvale, Australia), as described previously.[72] […] […]. IC50 are expressed as means of at least 5 to 7 independent experiments.

[5] = system: 3D7 strain of P. falciparum; assay: Coincubation of ATV with metal precursors, parasite growth inhibition (Figure 3C); format: cell-based, Plasmodium falciparum; conditions: ATV 1.0 nM, [Au(PPh3)Cl] and [Cu(PPh3)2NO3] at 1000 nM
Experimental: (§3) Figure 3 (A) Antiplasmodial activity of the compounds against the 3D7 strain of P. falciparum. (B) Cytotoxicity against the J774 cell line. In both cases, the compounds were diluted in cell culture and incubated for 0 or 72 h before use in the assays. […] In panels A and C, parasite viability was measured by HRP2 ELISA-based assay, and IC50 values were calculated. In panel B, cell viability was measured by CellTiter-Glo, and IC50 values were calculated. In panels A and B, the values are the mean and standard deviation of two independent experiments, using each concentration of compounds in duplicate. In panel C, the values are the mean and standard deviation of one experiment, using each concentration of compounds in quadruplicate. *p < 0.05; indicating significant difference by Student’s t test.
After ascertaining the existence of an association between the reactivity of the metal complexes and their pharmacological activity, we decided to evaluate whether they could be generated in situ upon coincubation of ATV and the respective metal precursors in the cell culture medium. In this set of experiments, ATV was added at 1.0 nM, while the metal precursors of gold(I) [Au(PPh3)Cl] and copper(I) [Cu(PPh3)2NO3] were added at 1000 nM (Figure 3C).

[6] = system: 3D7 strain of P. falciparum; assay: Antiplasmodial activity after preincubation of compounds in cell culture medium (Figure 3A); format: cell-based, Plasmodium falciparum; conditions: compound preincubated 0 or 72 h in culture medium
Experimental: To understand the reason for the difference in antiplasmodial potency between monodentate complex 2 and bidentate complexes 1 and 3, we incubated all three metal complexes in cell culture media for different times before assessing their antiplasmodial activity (Figure 3A). The percentage of parasite growth inhibition in samples of cell culture medium containing complex 2 was reduced after 72 h incubation in comparison to freshly prepared samples (0 h). […] We interpret the loss in antiplasmodial activity for complex 2 as potentially resulting from ligand exchange reactions occurring in the culture medium before drug internalization into parasite cells. This denotes a higher lability for the monodentate complex 2 than for the bidentate complexes 1 and 3.
as §3

J774 cell line = assay: Cytotoxicity after preincubation of compounds in cell culture medium (Figure 3B); format: cell-based, murine; conditions: J774 cells; compound preincubated 0 or 72 h in culture medium
Experimental: as §3
To further shed light on this, we performed the same experiment described above but assessing cytotoxicity in […] cells (Figure 3B). […] Our data also confirm not only drug stability but also the reactivity of the resulting products as important parameters.

Compound	inhibition of β-hematin crystal formation (IR bands 1663 and 1210 cm^–1) [1]	CC50 at 72 h [2]	CC50 at 72 h [3]	Selectivity index (S.I.) ([4]; CC50 (J774)/IC50(3D7))	IC50 ([4]; Plasmodium falciparum)	parasite growth inhibition of ATV in the absence or presence of metal precursors [5]	parasite growth inhibition after 72 h incubation in cell culture medium versus freshly prepared samples (0 h) [6]	IC50 [4]	cell viability (cytotoxicity) after 72 h incubation in cell culture medium versus freshly prepared samples (0 h) (J774 cell line)
O=C1C(O)=C([C@H]2CC[C@H](c3ccc(Cl)cc3)CC2)C(=O)c2ccccc21 [ATV, atovaquone]	unable to inhibit β-hematin crystal formation	19.8 ± 1.6 µM	32.4 ± 4.8 µM	8250	2.4 ± 1.2 nM	did not observe a difference			
O=C1C([O][Cu]([PH](c2ccccc2)(c2ccccc2)c2ccccc2)[PH](c2ccccc2)(c2ccccc2)c2ccccc2)=C([C@H]2CC[C@H](c3ccc(Cl)cc3)CC2)C(=O)c2ccccc21 [Complex 3, [Cu(ATV)(PPh3)2]]							remained unchanged	30.7 ± 10.7 nM	remained unchanged
[Ag(ATV)(PPh3)2] [Complex 1]							remained unchanged	30.5 ± 9.7 nM	became less cytotoxic
[Au(ATV)(PPh3)]·2H2O [Complex 2]							reduced	8.1 ± 2.7 nM	remained unchanged
